Patent US20060121449A1, “Method for selection of compounds which inhibit clonal cell growth and use thereof” (priority 2002, published 2006)
“Also recorded” adds a separate entry of the source. Like-named read-outs stand apart in the source and are kept apart here.

Columns and labels:
[1] = system: polyoma virus transformed BHK21/c13 cells, clone S100T1; test: Clonal test: clonal growth of S100T1 cells in soft agar (Exp 2, 4, 6, 15, 16); type: cell-based, hamster; conditions: for Clonal growth: Exp 15, plate read the 5th day
Method: The clonal test comprises: • 1. seeding cells in soft agar optionally containing growth factor(s); • 2. handling or incubation of special gels (e.g. ultra low gelling temperature agarose), including the production of cell density gradients. • 3. incubating in suitable temperature and atmosphere and; • 4. regular monitoring of the cells and development of clones.
The clonal test can be directed in fluid medium or in soft agar medium. Usually only transformed cells will form clones in soft agar.
After seeding and mixing, the tubes were placed in the refrigerator for about 1 hour to consolidate the ultra low melting point agarose.
120000 S100T1 cells of a polyoma virus transformed BHK21/c13 cell line, were seeded in 1 ml soft agar medium in Falcon 50 ml centrifuge tubes. […] On the top of the agar layer 0.5 ml fluid medium was added.
Agar cultures were prepared in wells of 24 well Falcon tissue culture plate. […] Insulin (Actrapid, Novo) was added in a concentration of 0.1 i.u./ml to BHK21/c13 cell cultures only.
The cells were all single cells. Each well received 32000 cells (Table 4). Plate: 24 wells Falcon tissue culture plate received a bottom layer composed as in Table 3:
The cells were all single cells.
The wells contained two layers, each of 0.3 ml agar.
The agarose was added to double distilled water and solved by heating in micro oven.

[2] = system: polyoma virus transformed BHK21/c13 cells, line S100T1; test: Collocation inhibition test: clonal growth in sparsely and densely seeded areas of a cell density gradient of S100T1 cells in soft agar (Exp 13, 17, 19-26); conditions: for Clonal growth read on the 3rd day after seeding / Clonal growth read on the 6th day after seeding: Exp 17; for Clonal growth, H high density area of cell gradient, High / Clonal growth, L low density area of cell gradient, High / Clonal growth, H high density area of cell gradient, Low / Clonal growth, L low density area of cell gradient, Low / Clonal growth, H high density area of cell gradient, Medium / Clonal growth, L low density area of cell gradient, Medium: Exp 13-18, 21-26; for Clonal growth after 48 hours incubation: L: low cell density part of the gradient;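 for Clonal growth, H high density area of cell gradient, High: grades rise with clonal growth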;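 for Clonal growth, H high density area of cell gradient, Low: grades rise with clonal growth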;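 for Clonal growth, H high density area of cell gradient, Medium: grades rise with clonal growth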;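 for Clonal growth, L low density area of cell gradient, High: grades rise with clonal growth and minus or plus-minus means none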;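 for Clonal growth, L low density area of cell gradient, Low: grades rise with clonal growth and minus or plus-minus means none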;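 for Clonal growth, L low density area of cell gradient, Medium: grades rise with clonal growth and minus or plus-minus means none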;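 for all read-outs here: soft agar cultures in 24-well plates with a cell density gradient in the top layer, compounds applied from DMSO stocks, clonal growth scored in sparse versus dense areas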
[3] = Exp 15, 5th day, High conc., μM in wells: No 1 (4-OH—OPB) 20, 2 (Colchicine) 0.1, 3 (Diphenylhydantoin) 100, 4 (Podophyllotoxin) 0.3, 5 (Piroxicam) 50, 6 (Diclofenak) 100, ” = as line above
[4] = Exp 15, 5th day, Low conc., μM in wells: No 1 (4-OH—OPB) 2, 2 (Colchicine) 0.01, 3 (Diphenylhydantoin) 10, 4 (Podophyllotoxin) 0.03, 5 (Piroxicam) 5, 6 (Diclofenak) 10, 7 (Ibuprofen) 100, 8 (Naproxen) 50, 9 (Acetylsalicylic acid) 100, ” = as line above
[5] = Low conc., μM in wells: No 1 (4-OH—OPB) 2, 2 (Colchicine) 0.01, 3 (Diphenylhydantoin) 10, 4 (Podophyllotoxin) 0.03, 5 (Piroxicam) 5, 6 (Diclofenak) 10, 7 (Ibuprofen) 100, 8 (Naproxen) 50, 9 (Acetylsalicylic acid) 100
[6] = Low: #1 Colchicine 0.1, #2 Podophyllotoxin 0.3, #3 Etoposide 20, #4 4-OH—OPB 0.67 μM in wells, #5 DMSO 1.16 μl
[7] = Medium: #1 Colchicine 0.3, #2 Podophyllotoxin 0.9, #3 Etoposide 60, #4 4-OH—OPB 2 μM in wells, #5 DMSO 6.8 μl
[8] = Experiment 23, A (area with high cell density), High concentration, 48 hours
[9] = Experiment 23, A (area with high cell density), Low concentration, 48 hours
[10] = Experiment 23, A (area with high cell density), Medium concentration, 48 hours
[11] = Experiment 23, B (area with low cell density), High concentration, 48 hours
[12] = Experiment 23, B (area with low cell density), Low concentration, 48 hours
[13] = Experiment 23, B (area with low cell density), Medium concentration, 48 hours
[14] = Summary Table 3 of analogue tests (experiments 22-25), H (high cell density), High concentration
[15] = Summary Table 3 of analogue tests (experiments 22-25), H (high cell density), Low concentration
[16] = Summary Table 3 of analogue tests (experiments 22-25), H (high cell density), Medium concentration
[17] = Summary Table 3 of analogue tests (experiments 22-25), L (low cell density), High concentration
[18] = Summary Table 3 of analogue tests (experiments 22-25), L (low cell density), Low concentration
[19] = Summary Table 3 of analogue tests (experiments 22-25), L (low cell density), Medium concentration
[20] = 4-OH-OPB analogues, S100T1 in soft agar, high concentration
[21] = 4-OH-OPB analogues, S100T1 in soft agar, low concentration
[22] = 4-OH-OPB analogues, S100T1 in soft agar, medium concentration
[23] = preliminary results, high concentration
[24] = preliminary results, low concentration
[25] = preliminary results, medium concentration
[26] = Exp 19, 120000 S100T1 cells/well
[27] = Exp 15, 32000 S100T1 cells/well

## Oc1ccc(N=Nc2ccccc2)cc1 [#1, p-hydroxy-azobenzene]
[1]; [3]
  Significance: yes
[1]; [4]
  Significance: yes
[1]; High conc., μM in wells: No 1 (4-OH—OPB) 20, 2 (Colchicine) 0.1, 3 (Diphenylhydantoin) 100, 4 (Podophyllotoxin) 0.3, 5 (Piroxicam) 50, 6 (Diclofenak) 100, 7 (Ibuprofen) 1000, 8 (Naproxen) 500, 9 (Acetylsalicylic acid) 1000
  Clonal growth: −
[1]; [5]
  Clonal growth: −
[2]
  Clonal growth, H: high density area of cell gradient, Low: +++
  Clonal growth, H: high density area of cell gradient, Medium: +++
  Clonal growth, L: low density area of cell gradient, High: +−
  Clonal growth, L: low density area of cell gradient, Low: ++
  Clonal growth, L: low density area of cell gradient, Medium: ++
  Clonal inhibition by 4-OH-OPB analogues, summary of Exp 22-25: complete inhibition of growth in sparsely seeded areas
[2]; High: #1 Colchicine 1, #2 Podophyllotoxin 3, #3 Etoposide 200, #4 4-OH—OPB 6.7 μM in wells, #5 DMSO 29.2 μl
  Clonal growth read on the 3rd day after seeding: −
[2]; [6]
  Clonal growth read on the 3rd day after seeding: ++
  Clonal growth read on the 6th day after seeding: +
[2]; [7]
  Clonal growth read on the 3rd day after seeding: ++
  Clonal growth read on the 6th day after seeding: +
[2]; [8]
  Clonal growth: +(+)
[2]; [9]
  Clonal growth: +++
[2]; [10]
  Clonal growth: +++
[2]; [11]
  Clonal growth: +−
[2]; [12]
  Clonal growth: ++
[2]; [13]
  Clonal growth: ++
[2]; [14]
  Clonal growth: +(+)
[2]; [15]
  Clonal growth: +++
[2]; [16]
  Clonal growth: +++
[2]; [17]
  Clonal growth: +−
[2]; [18]
  Clonal growth: ++
[2]; [19]
  Clonal growth: ++

## CCCCC(O)(C(=O)Nc1ccccc1)C(=O)Nc1ccc(O)cc1 (stereo not shown) [#2, 2-Butyl-2-hydroxy-N-(4-hydroxy-phenyl)-N′-phenyl malonamide]
[1]; [3]
  Significance: no
[1]; [4]
  Significance: no
[1]; [5]
  Clonal growth: ++
[2]; [20]
  Clonal growth, H: high density area of cell gradient, High: ++
  Clonal growth, L: low density area of cell gradient, High: −
[2]; [21]
  Clonal growth, H: high density area of cell gradient, Low: ++(+)
  Clonal growth, L: low density area of cell gradient, Low: ++
[2]; [22]
  Clonal growth, H: high density area of cell gradient, Medium: ++
  Clonal growth, L: low density area of cell gradient, Medium: ++
[2]; [6]
  Clonal growth read on the 6th day after seeding: +
[2]; [7]
  Clonal growth read on the 6th day after seeding: (+
[2]; [8]
  Clonal growth: ++
[2]; [9]
  Clonal growth: ++(+)
[2]; [10]
  Clonal growth: ++
[2]; [11]
  Clonal growth: −
[2]; [12]
  Clonal growth: ++
[2]; [13]
  Clonal growth: ++
[2]; [14]
  Clonal growth: ++
[2]; [15]
  Clonal growth: ++(+)
[2]; [16]
  Clonal growth: ++
[2]; [17]
  Clonal growth: −
[2]; [18]
  Clonal growth: ++
[2]; [19]
  Clonal growth: ++
[2]; sparsely seeded areas while densely seeded areas of the same culture showed significant growth
  Clonal inhibition by 4-OH-OPB analogues, summary of Exp 22-25: complete inhibition of growth in sparsely seeded areas

## Somatotropin: growth hormone tested for clonal stimulation
[2]; Exp 25, 48 hours incubation
  Effect on clonal growth: seemed to create some large colonies
[2]; Experiment 25, H: area with high cell density, High concentration, after 48 hours incubation
  Clonal growth: ++
[2]; Experiment 25, H: area with high cell density, Low concentration, after 48 hours incubation
  Clonal growth: ++(+)
[2]; Experiment 25, H: area with high cell density, Medium concentration, after 48 hours incubation
  Clonal growth: ++(+)
[2]; Experiment 25, L: area with low cell density, High concentration, after 48 hours incubation
  Clonal growth: ++
[2]; Experiment 25, L: area with low cell density, Low concentration, after 48 hours incubation
  Clonal growth: ++(+)
[2]; Experiment 25, L: area with low cell density, Medium concentration, after 48 hours incubation
  Clonal growth: ++(+)
[2]; [23]
  Clonal growth, H high density area of cell gradient, High: ++
  Clonal growth, L low density area of cell gradient, High: ++
[2]; [24]
  Clonal growth, H high density area of cell gradient, Low: ++(+)
  Clonal growth, L low density area of cell gradient, Low: ++(+)
[2]; [25]
  Clonal growth, H high density area of cell gradient, Medium: ++(+)
  Clonal growth, L low density area of cell gradient, Medium: ++(+)

## O=P1(N(CCCl)CCCl)NCCCO1 (stereo not shown) [Cyclophosphamide, reference compound]
[2]; [26]
  Effect on growth in densely and sparsely seeded areas: no inhibition of growth in any of these areas; also recorded: No inhibition of clonal cell growth was
  Effect on growth in densely seeded areas: stimulation of clonal growth probably was significant
[2]; Exp 19, 120000 S100T1 cells/well, listed as cyclophosphamide
  Effect on growth in densely and sparsely seeded areas: obtained, but cyclophosphamide stimulated
[2]; Exp 19, high concentration
  Clonal growth after 48 hours incubation: ++
[2]; Exp 19, low concentration
  Clonal growth after 48 hours incubation: ++
[2]; Exp 19, medium concentration
  Clonal growth after 48 hours incubation: ++
[2]; [23]
  Clonal growth, H high density area of cell gradient, High: ++
  Clonal growth, L low density area of cell gradient, High: ++
[2]; [24]
  Clonal growth, H high density area of cell gradient, Low: ++(+)
  Clonal growth, L low density area of cell gradient, Low: ++
[2]; [25]
  Clonal growth, H high density area of cell gradient, Medium: ++(+)
  Clonal growth, L low density area of cell gradient, Medium: ++
[2]; preliminary results, in words
  Effect on cell cloning in soft agar: When unactivated growth increased in

## CN(Cc1cnc2nc(N)nc(N)c2n1)c1ccc(C(=O)N[C@@H](CCC(=O)O)C(=O)O)cc1 [methotrexate, Methotrexate, reference compound]
[2]; Exp 23, 180000 S100T1 cells/well
  Effect on growth: did not show significant growth inhibition at all
[2]; [8]
  Clonal growth: +(+)
[2]; [9]
  Clonal growth: ++
[2]; [10]
  Clonal growth: ++
[2]; [11]
  Clonal growth: +
[2]; [12]
  Clonal growth: +
[2]; [13]
  Clonal growth: +(+)

## O=C1NC(=O)C(c2ccccc2)(c2ccccc2)N1 [Diphenhydantoin]
[1]; [27]
  Effect on clonal growth at 10-100 μM: did not inhibit clonal growth significantly

## CC(C)Cc1ccc(C(C)C(=O)O)cc1 (stereo not shown) [Ibuprofen]
[1]; [27]
  Effect on clonal growth at 100 μM: insignificant inhibition
[1]; Exp 16, read after 14 days, Ibuprofen No 8, ca. 223 μM
  Significance of results: possible
[1]; Exp 16 day 14, Ibuprofen No 8, 215 μM
  Significance: possible
[1]; Exp 16 day 14, Ibuprofen No 8, 215 μM in wells
  Growth: (+)
[1]; Exp 16 day 14, Ibuprofen No 8, 464 μM in wells
  Growth: (+))
[1]; Exp 16 day 14, Ibuprofen No 8, 464 μM, doubtful because the solvent DMSO might be inhibiting
  Significance: doubtful*
[1]; Exp 16 day 21, Ibuprofen No 8, 215 μM
  Significance: probable
[1]; Exp 16 day 21, Ibuprofen No 8, 215 μM in wells
  Growth: (+))
[1]; Exp 16 day 21, Ibuprofen No 8, 464 μM in wells
  Growth: (+))
[1]; Exp 16 day 21, Ibuprofen No 8, 464 μM, *see conclusion (DMSO)
  Significance: doubtful*
[1]; S100T1 in soft agar
  Anti-clonal effect, summary of Exp 15: showed possible clonal inhibition at low
  Anti-clonal effect, summary of Exp 16: Ibuprofen and Naproxen possibly inhibited and Acetyl
